Where only a bound is given, the exact number is not on record here.

Here are results for four sequences from PMC10706425, “Enhancing the Antimicrobial Properties of Peptides through Cell-Penetrating Peptide Conjugation: A Comprehensive Assessment” (International Journal of Molecular Sciences, 2023).

In data set [1] the test system is P. aeruginosa (ATCC 28753 strain). The experiment in a line: Antibacterial activity in liquid medium. As to conditions: for Concentrations at which the peptide showed an antimicrobial effect (comparable to gentamicin): 15 h incubation, tested 0.75–12 µM, gentamicin 200 µM, Figures 3, 4; for Peptide Activity in Liquid Medium after 15 h of Incubation (Gentamicin as Positive Control): ATCC 28753, Mueller–Hinton broth, 37 °C, 2% DMSO. Format: cell-based, Pseudomonas aeruginosa. The source says: (§1) Two S. aureus strains were used: a susceptible strain 209P and a clinical isolate strain 129B (resistant to antibiotics: benzylpenicillin, clindamycin, erythromycin, oxacillin, sulfamethoxazole, and vancomycin). Two MRSA strains were included: a susceptible strain ATCC 43300 (resistant to antibiotics: methicillin, oxacillin (beta-lactam antibiotics), ampicillin (https://www.atcc.org/products/43300 (accessed on 11 November 2023)) and a clinical isolate strain SA 180 (resistant to antibiotics: benzylpenicillin and oxacillin (beta-lactam antibiotics), ciprofloxacin, clindamycin, erythromycin, levomycetin, sulfamethoxazole, and vancomycin). One B. cereus was used: a susceptible strain, IP 5832. Two P. aeruginosa strains were included: a susceptible strain, ATCC 28753, and a resistant strain, 2943. Two E. coli strains were used: a susceptible strain, K12, and a susceptible strain, MG1655.
(§2) Determination of the growth for the bacteria S. aureus strain 209P, MRSA strain ATCC 43300, B. cereus strain IP 5832, P. aeruginosa strain ATCC 28753, and E. coli strain K12 was performed using Mueller–Hinton Broth (MHB) (Sigma-Aldrich, St. Louis, MO, USA). Bacteria of S. aureus (strain 129B) and MRSA (strain SA 180-F) were grown on the brain-heart infusion (BHI) medium, and bacteria of P. aeruginosa (strain 2943) and E. coli (strain MG1655) were grown on the LB medium. The preparation and co-incubation of peptides with bacteria were carried out as described previously. The samples were grown at 37 °C.

The subject of data set [2] is BT-474 cells. As to the kind of experiment: Cytostatic effect, cell cycle phases and mitotic activity. Format: cell-based, human. To be noted: 50 μg/mL, with and without pre-incubation. As to the method:
(§3) BT474 human breast duct carcinoma cells were obtained from the American Collection of Type Cell Cultures (Manassas, Virginia, VA, USA). BT474 cells were cultured in DMEM medium (Sigma-Aldrich, St. Louis, MO, USA) supplemented with 10% fetal calf serum (Gibco, Waltham, MA, USA) and 40 μg/mL gentamicin sulfate (Sigma-Aldrich, St. Louis, MO, USA) at 37 °C under conditions of 5% CO2 in the air.
To study the distribution of cells over the phases of the cell cycle, cells were collected, washed in phosphate-buffered saline (300 g, 5 min), and fixed with 70% ethanol (24 h, −20 °C). Staining was carried out for 15 min at 37 °C in the following medium: phosphate-buffered saline, 0.1% Triton X100, 10 μg/mL propidium iodide, and 100 μg/mL RNase (Biolot, St. Petersburg, Russia). The analysis was performed using a BD Accuri C6 flow cytometer (BD Bioscience, San Jose, CA, USA). The obtained results were processed in the ModFit LT 4.1 program.
(§4) To determine the mitotic activity, the cells were washed in phosphate-buffered saline (300 g, 5 min) and fixed with 70% ethanol (24 h, −20 °C). Then, they were stained with bisBenzimide H 33342 fluorescent dye at a concentration of 1 μg/mL for 10 min at room temperature, and the number of mitotic cells was counted using a DM 6000 fluorescent microscope (Leica, Wetzlar, Germany). At least 500 cells were analyzed.

Data set [3] relates to S. aureus (129B strain). The experiment in a line: Antibacterial activity in liquid medium, clinical isolate. In kind it is cell-based, Staphylococcus aureus. As to conditions: BHI medium, 37 °C.
Source text: as §1, §2

The test system of data set [4] is BT474 cells. The experiment in a line: Cytotoxic effect, calcein AM / propidium iodide flow cytometry. As to conditions: 50 µg/mL, with and without pre-incubation; 96 h. In kind it is cell-based, human. As to the method:
as §3
The number of living and dead cells was determined by staining cells with the fluorescent dyes calcein AM (Sigma-Aldrich, St. Louis, MO, USA) and propidium iodide (Sigma-Aldrich, St. Louis, MO, USA). Cells were detached from the surface of the samples using an Accutase cocktail. Cells were stained in L-15 medium with 1% fetal bovine serum containing 1 μg/mL calcein AM and 2 μg/mL propidium iodide for 25 min at 37 °C. Live and dead cells were analyzed using a BD Accuri C6 flow cytometer (BD Bioscience, San Jose, CA, USA).

Data set [5] deals with P. aeruginosa (2943 strain). The experiment in a line: Antibacterial activity in liquid medium, resistant strain. To be noted: LB medium, 37 °C. In kind it is cell-based, Pseudomonas aeruginosa.
Source text: as §1, §2

For data set [6], the system named is MRSA (SA 180-F strain). As to the kind of experiment: Antibacterial activity in liquid medium, clinical isolate. In kind it is cell-based, Methicillin-resistant Staphylococcus aureus. To be noted: BHI medium, 37 °C.
Source text: as §1, §2

Data set [7] deals with human skin fibroblasts. The experiment in a line: Cytotoxic effect, calcein AM / propidium iodide flow cytometry. Format: cell-based. As to conditions: 50 µg/mL, with and without pre-incubation; 96 h. Here is the method:
(§5) The culture of normal human fibroblasts was obtained from the skin areas of the inner surface of the forearm of healthy volunteers after their consent using the explant method. All volunteers gave their informed consent for inclusion before they participated in the study. The study was conducted in accordance with the Declaration of Helsinki, and the protocol was approved by the Ethics Committee of ITEB RAS No. 43/2023. The culture of normal human fibroblasts was obtained from the skin areas of the inner surface of the forearm using the explant method. A 5 × 5 mm skin explant was washed for several minutes in phosphate buffer containing 400 μg/mL gentamicin sulfate. […] After the release of cells from the fragments, the cells were detached from the surface of the culture plastic, and the number of cells was determined. […]
The number of living and dead cells was determined by staining cells with the fluorescent dyes calcein AM (Sigma-Aldrich, St. Louis, MO, USA) and propidium iodide (Sigma-Aldrich, St. Louis, MO, USA). […] Live and dead cells were analyzed using a BD Accuri C6 flow cytometer (BD Bioscience, San Jose, CA, USA).

The subject of data set [8] is human skin fibroblasts. As to the kind of experiment: Cytostatic effect, cell cycle phases and mitotic activity. To be noted: 50 μg/mL, with and without pre-incubation. Format: cell-based. Here is the method: as §5, §4
The test system of data set [9] is E. coli (K12 strain). As to the kind of experiment: Antibacterial activity in liquid medium. To be noted: for Peptide Activity in Liquid Medium after 15 h of Incubation (Gentamicin as Positive Control): K12 strain, Mueller–Hinton broth, 37 °C, 2% DMSO; for Concentrations at which the peptide showed an antimicrobial effect (comparable to gentamicin): 15 h incubation, tested 0.75–12 µM, gentamicin 200 µM, Figures 3, 4. Format: cell-based, Escherichia coli.
Source text: as §1, §2

Data set [10] has as its system E. coli (MG1655 strain). The experiment in a line: Antibacterial activity in liquid medium. In kind it is cell-based, Escherichia coli. As to conditions: LB medium, 37 °C.
Source text: as §1, §2

The subject of data set [11] is B. cereus (IP 5832 strain). As to the kind of experiment: Antibacterial activity in liquid medium. As to conditions: 15 h incubation; tested 0.75–12 µM; gentamicin 200 µM; Figures 3, 4. Format: cell-based, Bacillus cereus.
Source text: as §1, §2

Data set [12] deals with MRSA (ATCC 43300 strain). The experiment in a line: Antibacterial activity in liquid medium. In kind it is cell-based, Methicillin-resistant Staphylococcus aureus. As to conditions: for Concentrations at which the peptide showed an antimicrobial effect (comparable to gentamicin): 15 h incubation, tested 0.75–12 µM, gentamicin 200 µM, Figures 3, 4; for Peptide Activity in Liquid Medium after 15 h of Incubation (Gentamicin as Positive Control): ATCC 43300 strain, Mueller–Hinton broth, 37 °C, 2% DMSO.
Source text: as §1, §2

Data set [13] deals with S. aureus (209P strain). The experiment in a line: Antibacterial activity in liquid medium. As to conditions: for Peptide Activity in Liquid Medium after 15 h of Incubation (Gentamicin as Positive Control): 209P strain, Mueller–Hinton broth, 37 °C, 2% DMSO; for Concentrations at which the peptide showed an antimicrobial effect (comparable to gentamicin): 15 h incubation, tested 0.75–12 µM, gentamicin 200 µM, Figures 3, 4. Format: cell-based, Staphylococcus aureus.
Source text: as §1, §2

Data set [14] is described as follows: Thioflavin T fluorescence assay for amyloid-like aggregates. To be noted: 24 h, 37 °C, 450 rpm; 50 mM TrisHCl pH 7.5, 150 mM NaCl, 20% DMSO; 200 µM ThT; peptide up to 190–380 μM (1 mg/mL). Format: physicochemical. The source says:
ThT, a benzothiazole dye, is known for its unique property of binding to amyloids and amyloid-like fibrils. This interaction results in a substantial increase in the fluorescence intensity of ThT, typically observed at a wavelength of around 485 nm.
The spectra of fluorescence intensity of free ThT and in solution with individual peptides were studied by us using the method of fluorescence spectroscopy as described previously.

For data set [15] the following is noted: over the tested concentration range; cited from earlier work.
Procedure: Analysis of the cytostatic effect was performed on the basis of the distribution of cells by phases of the cell cycle and mitotic activity.

For the sequence “ITDFGIFIGLGGGGSRQIKIWFQNRRMKWKK [I31K^P, Amyloidogenic fragment of S1 from P. aeruginosa + CPP2 (Antennapedia fragment), 31 a.a]”, the “Concentrations at which the peptide showed an antimicrobial effect (comparable to gentamicin)” value (shortened to “Concentrations”) in data set [1] is “not found”; in data set [11], 12 µM; in data set [12], “did not show strong effects”; in data set [13] it was “did not show strong effects”. Besides, the “Peptide Activity in Liquid Medium after 15 h of Incubation (Gentamicin as Positive Control)” value in data set [1] is >12 µM, ATCC 28753; in data set [9], >12 µM, K12 strain; in data set [12], >12 µM, ATCC 43300 strain; in data set [13], >12 µM, 209P strain. Moreover, the “Proliferative activity (cytostatic effect)” value in [2] and in data set [8] was “did not even suppress their proliferative activity” in each case. Besides, the “Peptide Activity in Liquid Medium after 24 h of Incubation (Meropenem as a Positive Control)” value in data set [3] was >2750 µM, 129B strain; in [5], >2750 µM, 2943 strain; in data set [6], >2750 µM, SA 180-F strain; in data set [10], >2750 µM, MG1655 strain. The Cytotoxic effect result in data set [4] and in data set [7] was “lacked cytotoxic effects” each time.
As for RKKRRQRRRGGGGITDFGIFIGL [R23L^P], the “Concentrations” value in [1] is 6 to 12 µM; in data set [9], 12 µM; in data set [11], 1.5 to 12 µM; in data set [12] it was 12 µM; in data set [13], 12 µM. In addition, the “Proliferative activity (cytostatic effect)” value in data set [2] and in data set [8] was “did not even suppress their proliferative activity” throughout. Moreover, the “Peptide Activity in Liquid Medium after 24 h of Incubation (Meropenem as a Positive Control)” value was >3780 µM, 129B strain in data set [3]; ≥3780 µM, 2943 strain in data set [5]; >3780 µM, SA 180-F strain in data set [6]; ≥3780 µM, MG1655 strain in data set [10]. Moreover, the Cytotoxic effect result is listed as “lacked cytotoxic effects” in data set [4], “lacked cytotoxic effects” in data set [7] and “not been shown to have significant effects” in data set [15]. For the same sequence, the “ThT fluorescence intensity at ~485 nm” value in data set [14] is given as “multiple increase in the fluorescence intensity of ThT”. Moreover, the “Peptide Activity in Liquid Medium after 15 h of Incubation (Gentamicin as Positive Control)” value in [9], in [12] and in data set [13] was 12 µM in each case.
As to “RKKRRQRRRGGGGITDFGIFIGLGGGGSRQIKIWFQNRRMKWKK [R44K^P, CPP1 + amyloidogenic fragment of S1 from P. aeruginosa + CPP2, dihybrid peptide, 44 a.a]”, the “Concentrations” value in data set [1] was 6 to 12 µM; in data set [11] it was 3 to 12 µM; in [12], 12 µM; in data set [13], 12 µM. Also, the “Peptide Activity in Liquid Medium after 15 h of Incubation (Gentamicin as Positive Control)” value in data set [1] is 6 µM; in data set [9], >12 µM, K12 strain; in data set [12], 12 µM; in data set [13], 12 µM. In addition, the “Peptide Activity in Liquid Medium after 24 h of Incubation (Meropenem as a Positive Control)” value in data set [3] is listed as >1930 µM, 129B strain; in data set [5], ≥1930 µM, 2943 strain; in data set [6] it was >1930 µM, SA 180-F strain; in data set [10] it was >1930 µM, MG1655 strain.
On to “VTDFGVFVEIGGGGSRQIKIWFQNRRMKWKK [V31K^T]”, for which the “Peptide Activity in Liquid Medium after 15 h of Incubation (Gentamicin as Positive Control)” value is on record as >12 µM, ATCC 28753 in [1]; >12 µM, K12 strain in [9]; >12 µM, ATCC 43300 strain in [12]; >12 µM, 209P strain in data set [13]. Besides, the “Peptide Activity in Liquid Medium after 24 h of Incubation (Meropenem as a Positive Control)” value is on record as >2730 µM, 129B strain in [3]; >2730 µM, 2943 strain in data set [5]; >2730 µM, SA 180-F strain in data set [6]; >2730 µM, MG1655 strain in data set [10]. Moreover, in data set [9], the “Concentrations” value is recorded as “no significant antimicrobial effects”.
